Measurements taken from publication PMC4979471 (Cell Death Discovery, 2015).
Read-outs that look alike come from different tables or passages of the source.

Key:
Assay in all cases: Kinase selectivity, P33-radiolabeled assay
Type in all cases: biochemical
Conditions in all cases: 10 μM ATP
GRK4 = biological target: T1, GRK4 (Homo sapiens, UniProt P32298)
T1 construct: purchased Reaction Biology Corp
How it was run: (§1)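 Activity relative to DMSO controls (%) was measured for compound at 10 μM. Assays ran at 10 μM ATP, in duplicate.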

HIPK3 = biological target: T2, HIPK3 (Homo sapiens, UniProt Q9H422)
T2 construct: purchased Reaction Biology Corp
How it was run: as §1

DMPK = biological target: T3, DMPK (Homo sapiens, UniProt Q09013)
T3 construct: purchased Reaction Biology Corp
T3 sequence (Q09013 1-629): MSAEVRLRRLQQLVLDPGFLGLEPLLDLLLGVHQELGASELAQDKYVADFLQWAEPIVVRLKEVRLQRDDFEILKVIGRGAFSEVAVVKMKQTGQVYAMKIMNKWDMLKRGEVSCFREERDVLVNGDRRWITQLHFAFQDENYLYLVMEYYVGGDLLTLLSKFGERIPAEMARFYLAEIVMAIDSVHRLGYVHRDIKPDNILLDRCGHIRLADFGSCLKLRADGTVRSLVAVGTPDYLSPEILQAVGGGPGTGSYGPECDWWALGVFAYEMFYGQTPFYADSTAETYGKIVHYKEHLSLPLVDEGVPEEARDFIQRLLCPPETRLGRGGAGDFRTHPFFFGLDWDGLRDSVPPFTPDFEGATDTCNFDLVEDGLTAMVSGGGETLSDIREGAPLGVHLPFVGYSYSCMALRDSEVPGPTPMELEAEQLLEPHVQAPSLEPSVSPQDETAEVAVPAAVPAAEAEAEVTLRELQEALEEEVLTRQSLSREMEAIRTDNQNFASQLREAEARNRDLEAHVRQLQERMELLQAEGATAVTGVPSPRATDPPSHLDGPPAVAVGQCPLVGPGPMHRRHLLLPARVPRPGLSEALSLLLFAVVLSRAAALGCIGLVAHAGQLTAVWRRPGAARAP
How it was run: as §1

NEK9 = biological target: T4, NEK9 (Homo sapiens, UniProt Q8TD19)
T4 construct: purchased Reaction Biology Corp
T4 sequence (Q8TD19 1-979): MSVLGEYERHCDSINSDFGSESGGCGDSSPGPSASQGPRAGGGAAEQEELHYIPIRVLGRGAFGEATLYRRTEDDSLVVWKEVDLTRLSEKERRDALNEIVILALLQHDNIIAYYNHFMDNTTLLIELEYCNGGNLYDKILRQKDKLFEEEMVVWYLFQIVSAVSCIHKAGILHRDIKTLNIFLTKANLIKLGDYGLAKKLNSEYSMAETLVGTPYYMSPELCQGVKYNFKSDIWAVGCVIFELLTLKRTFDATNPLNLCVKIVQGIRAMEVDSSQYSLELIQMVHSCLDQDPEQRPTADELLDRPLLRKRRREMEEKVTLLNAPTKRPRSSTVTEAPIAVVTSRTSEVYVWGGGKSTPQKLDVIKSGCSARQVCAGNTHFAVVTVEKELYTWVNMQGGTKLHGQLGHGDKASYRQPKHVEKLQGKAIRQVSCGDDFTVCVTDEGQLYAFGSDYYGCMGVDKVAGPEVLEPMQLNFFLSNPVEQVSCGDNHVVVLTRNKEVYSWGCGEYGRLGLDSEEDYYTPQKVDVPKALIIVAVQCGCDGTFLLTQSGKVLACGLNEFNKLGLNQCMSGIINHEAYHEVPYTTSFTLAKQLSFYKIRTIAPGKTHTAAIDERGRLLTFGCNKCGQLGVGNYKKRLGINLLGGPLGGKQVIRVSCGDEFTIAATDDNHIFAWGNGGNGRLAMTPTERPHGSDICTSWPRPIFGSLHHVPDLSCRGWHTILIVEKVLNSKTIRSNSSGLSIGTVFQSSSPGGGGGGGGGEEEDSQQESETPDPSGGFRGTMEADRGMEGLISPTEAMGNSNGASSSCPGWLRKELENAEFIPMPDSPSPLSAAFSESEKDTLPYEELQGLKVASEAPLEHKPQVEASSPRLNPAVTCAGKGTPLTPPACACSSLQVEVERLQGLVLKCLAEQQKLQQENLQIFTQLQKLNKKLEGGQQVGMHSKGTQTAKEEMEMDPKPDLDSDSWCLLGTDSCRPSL
How it was run: as §1

WNK1 = biological target: T5, WNK1 (Homo sapiens, UniProt Q9H4A3)
T5 construct: purchased Reaction Biology Corp
How it was run: as §1

MSSK1/STK23 = biological target: T6, MSSK1/STK23 (Homo sapiens, UniProt Q9UPE1)
T6 construct: purchased Reaction Biology Corp
How it was run: as §1

PKN1/PRK1 = biological target: T7, PKN1/PRK1 (Homo sapiens, UniProt Q16512)
T7 construct: purchased Reaction Biology Corp
How it was run: as §1

DYRK4 = biological target: T8, DYRK4 (Homo sapiens, UniProt Q9NR20)
T8 construct: purchased Reaction Biology Corp
T8 sequence (Q9NR20 1-520): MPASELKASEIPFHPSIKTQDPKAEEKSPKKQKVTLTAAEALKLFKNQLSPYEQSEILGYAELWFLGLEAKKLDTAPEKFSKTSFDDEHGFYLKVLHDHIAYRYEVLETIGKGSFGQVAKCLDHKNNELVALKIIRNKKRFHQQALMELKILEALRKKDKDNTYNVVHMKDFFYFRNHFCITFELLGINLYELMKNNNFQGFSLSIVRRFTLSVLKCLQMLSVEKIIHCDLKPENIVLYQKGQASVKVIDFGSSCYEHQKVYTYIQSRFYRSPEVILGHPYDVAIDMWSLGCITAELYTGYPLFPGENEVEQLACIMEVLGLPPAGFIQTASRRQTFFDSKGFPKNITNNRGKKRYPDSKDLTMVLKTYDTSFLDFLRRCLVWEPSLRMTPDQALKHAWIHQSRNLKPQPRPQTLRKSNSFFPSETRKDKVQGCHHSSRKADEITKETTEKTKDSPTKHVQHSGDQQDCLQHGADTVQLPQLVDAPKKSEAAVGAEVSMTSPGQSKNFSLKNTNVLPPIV
How it was run: as §1

CK1epsilon = biological target: T9, CK1epsilon (Homo sapiens, UniProt P49674)
T9 construct: purchased Reaction Biology Corp
How it was run: as §1

[1] = read-out: % Enzyme Activity (relative to DMSO controls) AVG
[2] = read-out: % Enzyme Activity (relative to DMSO controls) Data 1
[3] = read-out: % Enzyme Activity (relative to DMSO controls) Data 2

T7 sequence (Q16512 whole entry): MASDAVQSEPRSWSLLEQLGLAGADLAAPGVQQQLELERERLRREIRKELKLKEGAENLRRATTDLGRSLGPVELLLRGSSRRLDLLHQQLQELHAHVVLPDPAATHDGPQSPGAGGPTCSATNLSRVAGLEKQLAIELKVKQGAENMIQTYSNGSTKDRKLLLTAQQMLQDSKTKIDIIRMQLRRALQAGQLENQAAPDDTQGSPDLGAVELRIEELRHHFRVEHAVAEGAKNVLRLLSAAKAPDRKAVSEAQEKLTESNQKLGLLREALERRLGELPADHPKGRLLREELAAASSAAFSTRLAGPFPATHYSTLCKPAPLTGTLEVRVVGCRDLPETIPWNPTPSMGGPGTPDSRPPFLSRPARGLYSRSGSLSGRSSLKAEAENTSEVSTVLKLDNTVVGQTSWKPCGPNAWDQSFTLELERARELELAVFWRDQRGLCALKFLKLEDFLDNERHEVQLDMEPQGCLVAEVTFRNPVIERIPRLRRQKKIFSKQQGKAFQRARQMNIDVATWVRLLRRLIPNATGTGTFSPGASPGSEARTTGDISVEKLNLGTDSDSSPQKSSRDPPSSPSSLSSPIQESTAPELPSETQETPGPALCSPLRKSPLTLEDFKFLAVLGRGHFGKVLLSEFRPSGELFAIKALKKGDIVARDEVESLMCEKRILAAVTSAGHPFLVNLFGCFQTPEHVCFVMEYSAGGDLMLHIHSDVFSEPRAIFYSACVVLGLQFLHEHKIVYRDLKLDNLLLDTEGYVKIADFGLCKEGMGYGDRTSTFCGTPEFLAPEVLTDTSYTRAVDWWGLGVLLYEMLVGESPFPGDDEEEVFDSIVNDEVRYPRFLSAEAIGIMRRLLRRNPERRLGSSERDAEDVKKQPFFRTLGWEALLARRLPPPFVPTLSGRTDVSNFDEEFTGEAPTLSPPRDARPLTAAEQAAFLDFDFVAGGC
T2 sequence (Q9H422 whole entry): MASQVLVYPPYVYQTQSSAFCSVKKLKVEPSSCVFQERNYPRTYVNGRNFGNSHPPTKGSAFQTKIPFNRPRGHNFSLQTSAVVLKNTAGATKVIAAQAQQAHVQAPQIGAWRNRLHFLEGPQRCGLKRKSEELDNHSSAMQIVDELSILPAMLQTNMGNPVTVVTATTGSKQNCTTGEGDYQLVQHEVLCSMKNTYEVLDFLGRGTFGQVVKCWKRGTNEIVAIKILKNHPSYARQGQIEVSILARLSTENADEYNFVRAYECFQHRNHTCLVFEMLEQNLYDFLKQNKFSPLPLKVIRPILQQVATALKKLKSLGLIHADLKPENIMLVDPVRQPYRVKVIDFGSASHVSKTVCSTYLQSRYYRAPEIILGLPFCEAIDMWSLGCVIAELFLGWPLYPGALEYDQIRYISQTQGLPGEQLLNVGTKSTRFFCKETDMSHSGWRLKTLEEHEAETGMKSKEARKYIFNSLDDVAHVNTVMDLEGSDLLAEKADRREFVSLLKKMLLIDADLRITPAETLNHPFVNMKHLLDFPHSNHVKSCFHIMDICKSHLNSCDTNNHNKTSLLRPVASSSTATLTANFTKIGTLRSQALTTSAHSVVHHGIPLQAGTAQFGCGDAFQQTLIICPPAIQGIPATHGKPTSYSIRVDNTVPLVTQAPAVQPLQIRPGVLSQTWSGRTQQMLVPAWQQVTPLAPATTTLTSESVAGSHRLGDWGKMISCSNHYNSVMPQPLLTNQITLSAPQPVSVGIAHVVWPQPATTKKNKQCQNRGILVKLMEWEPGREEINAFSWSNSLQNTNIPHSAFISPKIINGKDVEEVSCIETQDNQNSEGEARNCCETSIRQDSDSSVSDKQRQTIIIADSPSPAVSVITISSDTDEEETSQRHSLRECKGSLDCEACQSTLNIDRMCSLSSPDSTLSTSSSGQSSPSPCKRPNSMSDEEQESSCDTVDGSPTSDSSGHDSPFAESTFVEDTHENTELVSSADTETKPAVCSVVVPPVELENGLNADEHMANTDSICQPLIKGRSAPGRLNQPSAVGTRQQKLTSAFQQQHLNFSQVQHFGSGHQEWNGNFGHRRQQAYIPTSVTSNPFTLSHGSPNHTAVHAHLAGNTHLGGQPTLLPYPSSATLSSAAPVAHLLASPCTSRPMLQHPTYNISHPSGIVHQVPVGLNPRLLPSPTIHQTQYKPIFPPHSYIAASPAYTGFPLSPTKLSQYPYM
T5 sequence (Q9H4A3 whole entry): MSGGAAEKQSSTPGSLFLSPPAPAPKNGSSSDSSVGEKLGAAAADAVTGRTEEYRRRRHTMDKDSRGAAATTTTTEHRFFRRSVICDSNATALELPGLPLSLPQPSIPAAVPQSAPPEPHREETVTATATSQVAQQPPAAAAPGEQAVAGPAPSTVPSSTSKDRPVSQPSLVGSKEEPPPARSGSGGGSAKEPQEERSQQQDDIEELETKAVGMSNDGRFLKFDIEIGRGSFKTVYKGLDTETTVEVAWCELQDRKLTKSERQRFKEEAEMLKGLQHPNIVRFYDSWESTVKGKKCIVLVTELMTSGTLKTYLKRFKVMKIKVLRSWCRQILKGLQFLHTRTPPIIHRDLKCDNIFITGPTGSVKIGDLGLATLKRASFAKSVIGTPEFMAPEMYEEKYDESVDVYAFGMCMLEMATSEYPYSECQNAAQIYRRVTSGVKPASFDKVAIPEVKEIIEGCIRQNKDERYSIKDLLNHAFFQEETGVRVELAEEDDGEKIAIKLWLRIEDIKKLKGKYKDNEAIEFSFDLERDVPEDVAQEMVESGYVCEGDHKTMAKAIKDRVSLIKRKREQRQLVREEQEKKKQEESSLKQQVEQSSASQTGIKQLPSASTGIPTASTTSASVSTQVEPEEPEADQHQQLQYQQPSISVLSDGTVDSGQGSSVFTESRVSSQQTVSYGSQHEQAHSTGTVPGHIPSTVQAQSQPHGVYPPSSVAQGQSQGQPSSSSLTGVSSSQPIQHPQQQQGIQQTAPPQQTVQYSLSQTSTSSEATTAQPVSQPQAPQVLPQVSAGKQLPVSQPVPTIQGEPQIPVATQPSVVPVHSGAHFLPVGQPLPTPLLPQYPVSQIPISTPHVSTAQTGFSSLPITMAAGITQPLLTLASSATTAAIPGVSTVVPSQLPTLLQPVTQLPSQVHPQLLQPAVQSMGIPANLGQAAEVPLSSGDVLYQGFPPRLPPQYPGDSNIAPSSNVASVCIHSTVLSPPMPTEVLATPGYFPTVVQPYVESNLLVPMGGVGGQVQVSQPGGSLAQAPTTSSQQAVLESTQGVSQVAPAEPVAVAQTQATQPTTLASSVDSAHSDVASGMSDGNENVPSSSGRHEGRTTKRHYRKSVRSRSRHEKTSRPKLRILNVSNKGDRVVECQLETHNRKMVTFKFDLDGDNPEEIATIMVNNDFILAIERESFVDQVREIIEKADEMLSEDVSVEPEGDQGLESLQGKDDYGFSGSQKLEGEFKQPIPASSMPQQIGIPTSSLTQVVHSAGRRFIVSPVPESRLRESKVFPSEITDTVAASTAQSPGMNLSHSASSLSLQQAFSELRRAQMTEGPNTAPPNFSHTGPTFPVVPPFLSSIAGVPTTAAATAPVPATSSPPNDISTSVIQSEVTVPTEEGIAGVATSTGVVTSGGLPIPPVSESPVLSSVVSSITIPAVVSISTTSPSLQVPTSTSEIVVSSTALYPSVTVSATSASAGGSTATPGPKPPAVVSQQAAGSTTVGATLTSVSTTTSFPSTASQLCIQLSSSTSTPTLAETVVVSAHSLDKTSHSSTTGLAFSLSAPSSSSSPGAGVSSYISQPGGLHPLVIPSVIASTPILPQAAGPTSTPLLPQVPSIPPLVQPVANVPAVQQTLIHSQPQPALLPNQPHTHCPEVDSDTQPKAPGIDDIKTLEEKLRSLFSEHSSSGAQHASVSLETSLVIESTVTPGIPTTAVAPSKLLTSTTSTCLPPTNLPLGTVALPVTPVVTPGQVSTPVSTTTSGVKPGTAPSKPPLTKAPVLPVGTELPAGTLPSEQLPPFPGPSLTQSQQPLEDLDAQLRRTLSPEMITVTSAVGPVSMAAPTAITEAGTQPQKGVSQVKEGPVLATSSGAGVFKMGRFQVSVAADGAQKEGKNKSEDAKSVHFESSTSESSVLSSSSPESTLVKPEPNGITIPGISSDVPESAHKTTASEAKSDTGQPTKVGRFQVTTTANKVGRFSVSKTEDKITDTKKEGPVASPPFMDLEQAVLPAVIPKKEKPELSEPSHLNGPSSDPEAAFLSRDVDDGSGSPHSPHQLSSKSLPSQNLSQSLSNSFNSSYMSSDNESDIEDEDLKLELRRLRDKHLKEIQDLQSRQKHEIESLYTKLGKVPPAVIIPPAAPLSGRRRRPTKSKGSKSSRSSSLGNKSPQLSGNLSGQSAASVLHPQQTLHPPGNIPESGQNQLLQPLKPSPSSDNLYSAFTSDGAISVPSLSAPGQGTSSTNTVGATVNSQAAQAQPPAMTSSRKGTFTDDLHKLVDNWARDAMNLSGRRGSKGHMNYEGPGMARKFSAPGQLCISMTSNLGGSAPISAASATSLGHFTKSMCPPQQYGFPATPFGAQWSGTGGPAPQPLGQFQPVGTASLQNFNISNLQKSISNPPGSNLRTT
T9 sequence (P49674 whole entry): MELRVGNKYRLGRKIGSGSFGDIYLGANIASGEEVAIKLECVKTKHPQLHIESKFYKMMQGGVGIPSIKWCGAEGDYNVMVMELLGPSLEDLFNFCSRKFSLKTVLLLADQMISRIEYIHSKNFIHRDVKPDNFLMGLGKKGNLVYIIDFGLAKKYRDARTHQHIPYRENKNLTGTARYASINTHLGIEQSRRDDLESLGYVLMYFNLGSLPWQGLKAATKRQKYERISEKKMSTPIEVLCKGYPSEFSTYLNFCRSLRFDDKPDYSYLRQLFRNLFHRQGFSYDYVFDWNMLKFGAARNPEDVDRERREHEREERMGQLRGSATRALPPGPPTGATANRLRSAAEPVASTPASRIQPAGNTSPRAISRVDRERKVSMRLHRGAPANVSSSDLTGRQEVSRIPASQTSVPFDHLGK

SMILES: CC(C)(C)C(=O)N1N=CC[C@H]1c1ccccc1 [GSK′963]
- remaining activity at 10 µM (GRK4; [1]): 97.9%
- remaining activity at 10 µM (GRK4; [2]): 97.9%
- remaining activity at 10 µM (GRK4; [3]): 97.8%
- remaining activity at 10 µM (HIPK3; [1]): 100%
- remaining activity at 10 µM (HIPK3; [2]): 100%
- remaining activity at 10 µM (HIPK3; [3]): 101%
- remaining activity at 10 µM (DMPK; [1]): 99.2%
- remaining activity at 10 µM (DMPK; [2]): 97.5%
- remaining activity at 10 µM (DMPK; [3]): 101%
- remaining activity at 10 µM (NEK9; [1]): 92.8%
- remaining activity at 10 µM (NEK9; [2]): 92.1%
- remaining activity at 10 µM (NEK9; [3]): 93.5%
- remaining activity at 10 µM (WNK1; [1]): 81.7%
- remaining activity at 10 µM (WNK1; [2]): 78.3%
- remaining activity at 10 µM (WNK1; [3]): 85.1%
- remaining activity at 10 µM (MSSK1/STK23; [1]): 107%
- remaining activity at 10 µM (MSSK1/STK23; [2]): 108%
- remaining activity at 10 µM (MSSK1/STK23; [3]): 105%
- remaining activity at 10 µM (PKN1/PRK1; [1]): 103%
- remaining activity at 10 µM (PKN1/PRK1; [2]): 104%
- remaining activity at 10 µM (PKN1/PRK1; [3]): 102%
- remaining activity at 10 µM (DYRK4; [1]): 101%
- remaining activity at 10 µM (DYRK4; [2]): 101%
- remaining activity at 10 µM (DYRK4; [3]): 101%
- remaining activity at 10 µM (CK1epsilon; [1]): 93.4%
- remaining activity at 10 µM (CK1epsilon; [2]): 96.7%
- remaining activity at 10 µM (CK1epsilon; [3]): 90.2%
